Results published in US20240307220A1, “Combination Therapy to Treat Temperature Sensitive Mutant Tumors” (H. LEE MOFFITT CANCER CENTER AND RESEARCH INSTITUTE INC., priority 2021, published 2024).

Assays:
[1] = tested on: H1299 cells expressing A138V; assay: ChIP of p53 DNA binding in H1299 expressing A138V shifted to 32° C. with CHX or 17-AAG; assay type: cell-based, human; set-up: rescue of p53 DNA binding at 32° C. (ChIP): dose or concentration left out as unconfirmed
Method: FIGS. 4A to 4E show molecular chaperones mediate refolding of stockpiled ts p53 at permissive temperature. […] P53 binding to p21 promoter was determined by ChIP. […] P53 DNA binding was determined by ChIP. FIG. 4C is a diagram of cell-free luciferase fragment complementation assay that detects the DNA binding of p53-Cluc fusion protein. ZF-Nluc and p53-Cluc binding to DNA containing ZF and p53 sites juxtapose Nluc and Cluc domains to restore luciferase activity. […] The heat-treated p53-Cluc proteins were mixed with ZF-Nluc, DNA, ATP, E. coli extract containing 5 chaperones and incubated for 3 hrs at 23° C. P53 DNA binding was detected by measuring luciferase activity. The results are average of 3 experiments (mean±SD). **p<0.01.
Chromatin immunoprecipitation (ChIP). ChIP assay was performed using standard procedure. Crosslinked p53-DNA complexes were immunoprecipitated with DO-1 antibody. Samples were subjected to SYBR Green real-time PCR analysis using forward and reverse primers for the p53 binding sites in the p21 promoter ([…] (SEQ ID NO:7) and […] (SEQ ID NO:8)), and PUMA promoter ([…] (SEQ ID NO:9) and […] (SEQ ID NO:10)).

[2] = tested on: UC3 bladder cancer cells; assay: UC3 colony formation after 2 hrs drug treatment, washout and 32° C. or 37° C. incubation; assay type: cell-based; details: 2 hrs drug at 37° C., washout, 32° C. vs 37° C. 24 hrs, then 7 days at 37° C.
Method: FIGS. 17A and 17B show hypothermia treatment given after chemotherapy enhances drug response in bladder cancer. […] The washed cells were incubated at 32° C. or 37° C. for 24 hrs, followed by 7 days at 37° C. and crystal violet staining for colony formation.
Standard bladder intravesical chemotherapy involves 1-2 hr irrigation with drugs at 37° C. or 42° C. The effect of treating cells with 32° C. hypothermia after chemotherapy was tested to avoid interference with drug uptake. TS mutant p53 activation peaks 6-8 hrs after shift to 32° C., which should cooperate with chemotherapy-induced DNA damage to induce cell death. […] Saline irrigation of up to 24 hrs is routinely performed after transurethral resection of bladder tumor (TURBT) procedure to prevent clotting. Therefore, irrigation with cooled saline after intravesical chemotherapy is expected to be well-tolerated and safe.

[3] = Pharmacological induction of hypothermia by CHA in nude mice; assay type: in vivo
Method: FIGS. 6A to 6D show hypothermia inhibits the growth of tumors expressing ts p53. […] One group of mice was treated with 32° C. hypothermia in 24 hr×6 format. Control animals (37° C.) were not treated. […] Tumor size (mean±SD) was plotted over time.
Animal experiment. Animal experiments were reviewed and approved by the University of South Florida IACUC. Athymic female nude mice (6-week old, Athymic Nude-Foxn1nu, Envigo) were injected subcutaneously with 0.1 ml 1:1 slurry of Matrigel (VWR 47743-715) and 1×10^7 cells in PBS at each site. The inoculated mice were housed in a cabinet set to 28° C. (ARIA BIO-C36 ventilated cabinet, TECNIPLAST) to ensure that tumors develop at ˜37° C. Each mouse received injections at 2 sites, tumors formed at >80% of sites injected with GA10 cells. N^6-cyclohexyladenosine (CHA, Sigma C9901) was dissolved at 20 mg/ml in 25% (2-Hydroxypropyl)-β-cyclodextrin (w/v, Sigma H107) and heated at 65° C. for 10 min to ensure dissolution. Camptothecin (CPT, Santa Cruz Biotechnology sc-200871B) was freshly dissolved in 1 N NaOH, diluted to ˜0.5 mg/ml with saline, and adjusted to pH10 using HCl. To induce hypothermia, 0.2 ml saline+10% glucose containing CHA and CPT was administered by intra peritoneal injection to provide a CHA dosage of 10 mg/kg body weight and CPT (when indicated) dosage of 1.5 mg/kg body weight. The mice were kept in the 28° C. cabinet and monitored using infrared thermal imaging camera (FLIR ONE Pro, FLIR® Systems, Inc.) to verify that body temperature was maintained at ˜32° C. A second injection of CHA (10 mg/kg) in 0.4 ml saline+10% glucose was given after 10 hours to maintain hypothermia for ˜24 hours. A third injection of CHA (10 mg/kg) in 0.4 ml saline+10% glucose was given after 10 hours to maintain hypothermia for ˜32 hours. After regaining normal body temperature, the mice were kept for 2-4 days in the 28° C. cabinet to allow weight recovery (˜10% weight loss occurred during hypothermia due to loss of mobility and food intake). The treatment was repeated 4-5 times (24 hr×6 or 32 hr×5 format). In each subsequent round CHA dosage was increased by 25% to compensate for the gradual loss of sensitivity.
Pharmacological induction of hypothermia. To test the effect of hypothermia on tumors with ts p53, the adenosine A1 receptor (A1AR) agonist CHA ([…]) was used to lower mouse body temperature to 32° C. for 24-48 hours. […] Intraperitoneal injection of CHA caused body temperature to decrease to ˜3° C. above the environment in ˜10 minutes, consistent with the induction of hibernation-like response in rats and mice by A1AR agonists (Tupone D, et al. J Neurosci 2013 33:14512-25; Futatsuki T, et al. Sci Rep 2018 8:2717). […] This was achieved by keeping the CHA-treated mice in a 28° C. environment (FIG. 6A). […]

[4] = nude mice, intraperitoneal injection

SMILES: C=CCNC1=C2C[C@@H](C)C[C@H](OC)[C@H](O)[C@@H](C)/C=C(\C)[C@H](OC(N)=O)[C@@H](OC)/C=C\C=C(/C)C(=O)NC(=CC1=O)C2=O [17-AAG]
- p53 activation at 32° C. (ChIP DNA binding) ([1]; 50 μM 17-AAG): blocked p53 activation

SMILES: COc1cccc2c1C(=O)c1c(O)c3c(c(O)c1C2=O)C[C@@](O)(C(=O)CO)C[C@@H]3O[C@H]1C[C@H](N)[C@H](O)[C@H](C)O1 [Doxorubicin]
- effect of 32° C. for 24 hrs after drug on growth inhibition (colony formation) [2]: modestly increased

SMILES: OC[C@H]1O[C@@H](n2cnc3c(NC4CCCCC4)ncnc32)[C@H](O)[C@@H]1O [CHA, N^6-cyclohexyladenosine]
- weight loss during hypothermia ([3]; CHA 10 mg/kg injections, due to loss of mobility and food intake): ~10%
- duration body temperature maintained at 32° C. ([3]; multiple injections of CHA, 28° C. environment): 24 to 32 h
- body temperature after CHA injection [3, 4]: ~3 °C above the environment
- time for body temperature decrease [3, 4]: ~10 min

SMILES: C[C@@H]1C[C@@H]([C@H](O)CC2CC(=O)NC(=O)C2)C(=O)[C@@H](C)C1 [cycloheximide]
- rescue of p53 DNA binding at 32° C. (ChIP) ([1]; cycloheximide (CHX)): did not prevent the rescue of DNA binding

SMILES: Nc1ccn([C@@H]2O[C@H](CO)[C@@H](O)C2(F)F)c(=O)n1 [Gemcitabine]
- effect of 32° C. for 24 hrs after drug on growth inhibition (colony formation) [2]: modestly increased
